In test [1] the target is T1, FEM1B (Mus musculus, UniProt Q9Z2G0). The test can be described thus: competitive fluorescence polarization with TAMRA-FNIP1 degron. Format: binding. (In general: Fluorescence polarisation rises when a labelled molecule tumbles more slowly, as on binding a larger partner.)
The target in test [2] is T1, FEM1B. Described as above. Format: binding. The source holds these as a separate data set.

For two compounds, IC50 results are on record in paper PMC8928484 (Journal of the American Chemical Society, 2022).

Where two headings read alike, the source gives them in different places.

T1 sequence (Q9Z2G0 whole entry): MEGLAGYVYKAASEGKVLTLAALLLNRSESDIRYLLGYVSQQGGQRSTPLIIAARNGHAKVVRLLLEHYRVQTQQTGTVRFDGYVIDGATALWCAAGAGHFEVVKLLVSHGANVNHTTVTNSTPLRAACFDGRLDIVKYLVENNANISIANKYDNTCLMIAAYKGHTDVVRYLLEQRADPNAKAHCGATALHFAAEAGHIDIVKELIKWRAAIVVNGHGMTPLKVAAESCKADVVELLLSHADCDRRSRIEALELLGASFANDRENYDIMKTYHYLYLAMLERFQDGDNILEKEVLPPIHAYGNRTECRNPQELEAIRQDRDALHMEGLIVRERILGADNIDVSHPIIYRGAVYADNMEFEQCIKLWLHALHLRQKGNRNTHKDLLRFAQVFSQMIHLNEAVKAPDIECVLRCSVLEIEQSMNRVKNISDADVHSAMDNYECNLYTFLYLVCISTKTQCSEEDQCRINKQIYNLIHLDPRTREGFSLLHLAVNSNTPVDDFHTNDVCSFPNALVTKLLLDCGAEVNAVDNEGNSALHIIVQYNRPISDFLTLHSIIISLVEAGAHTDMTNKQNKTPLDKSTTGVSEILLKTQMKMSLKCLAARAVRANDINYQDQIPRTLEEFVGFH

Usually IC50 stands for the concentration that inhibits the measured activity by half. The low end stands for inhibition by little substance, the high end for a need for much substance. At FEM1B [1], `C#CCCCC(=O)N1CCOc2cc(N(CCC#N)C(=O)CCl)ccc21` [NJH-2-030] displayed an IC50 of 0.67 µM.

NJH-1-106: the IC50 at FEM1B [2] turned out to be 1.5 µM.
